Measurements: patent publication US7776558B2, “Human G protein-coupled receptor and modulators thereof for the treatment of cell death-related disorders” (Arena Pharmaceuticals, Inc., priority 2003, dated 2010)
Where no end group is shown, it is not given here.

Biological target: T1, FPRL2 (Homo sapiens, UniProt P25089)
T1 sequence (P25089 1-353): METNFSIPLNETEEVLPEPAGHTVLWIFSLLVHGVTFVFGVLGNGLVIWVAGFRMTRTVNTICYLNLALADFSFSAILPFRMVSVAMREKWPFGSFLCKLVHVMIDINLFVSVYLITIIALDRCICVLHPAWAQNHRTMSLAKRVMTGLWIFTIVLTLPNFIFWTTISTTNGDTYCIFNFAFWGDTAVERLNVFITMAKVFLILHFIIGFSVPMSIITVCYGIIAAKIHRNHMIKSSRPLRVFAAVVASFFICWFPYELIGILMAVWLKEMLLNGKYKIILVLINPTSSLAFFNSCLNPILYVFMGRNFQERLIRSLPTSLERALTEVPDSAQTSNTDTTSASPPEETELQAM
Experiment: IP3 assay, HEK293 cells transiently transfected with FPRL2 and Gα16
Type: cell-based
Design: expressed in transfected cells; host or cells: HEK293 cells, transient, lipofectamine
Details: FIG. 8
Procedure: On day 1, cells comprising the receptors (endogenous and/or non-endogenous) can be plated onto 24 well plates, usually 1×10^5 cells/well (although his umber can be optimized. On day 2 cells can be transfected by firstly mixing 0.25 μg DNA in 50 μl serum free DMEM/well and 2 μl lipofectamine in 50 μl serum free DMEM/well. The solutions are gently mixed and incubated for 15-30 min at room temperature. Cells are washed with 0.5 ml PBS and 400 μl of serum free media is mixed with the transfection media and added to the cells. The cells are then incubated for 3-4 […] at 37° C./5% CO2 and then the transfection media is removed and replaced with 1 ml/well of regular growth media. On day 3 the cells are labeled with ^3H-myo-inositol. Briefly, the media is removed and the cells are washed with 0.5 ml PBS. Then 0.5 ml inositol-free/serum free media (GIBCO BRL) is added/well with 0.25 μCi of ^3H-myo-inositol/well and the cells are incubated for 16-18 hrs o/n at 37° C./5% CO2. On Day 4 the cells are washed with 0.5 ml PBS and 0.45 ml of assay medium is added containing inositol-free/serum free media 10 μM pargyline 10 mM lithium chloride or 0.4 ml of assay medium and 50 μl of 10× ketanserin (ket) to final concentration of 10 μM. The cells are then incubated for 30 min at 37° C. The cells are then washed with 0.5 ml PBS and 200 μl of fresh/ice cold stop solution (1M KOH; 18 mM Na-borate; 3.8 mM EDTA) is added/well. The solution is kept on ice for 5-10 min or until cells were lysed and then neutralized by 200 μl of fresh/ice cold neutralization sol. (7.5% HCL). The lysate is then transferred into 1.5 ml eppendorf tubes and 1 ml of chloroform/methanol (1:2) is added/tube. The solution is vortexed for 15 sec and the upper phase is applied to a Biorad AG1-X8™ anion exchange resin (100-200 mesh). […]
Briefly, HEK293 cells were transiently transfected with 6 μg FPRL2 plasmid DNA and 6 μg Gα16 plasmid DNA per 10^7 cells per 15 cm culture dish using lipofectamine (Invitrogen). […] The level of intracellular IP3 was determined as described in Example 4, supra.

| Molecule | Level of intracellular IP3 (FPRL2 coupling to Gα16) |
| --- | --- |
| CC(C)c1ccc2c(c1)CCC1C(C)(C(N)=O)CCCC21C (stereo not drawn) [Compound 1, 7-Isopropyl-1,4a-dimethyl-1,2,3,4,4a,9,10,10a-octahydro-phenanthrene-1-carboxylic acid amide] | dose-dependent elevation of the level of intracellular IP3 |
| CC[C@H](C)[C@H](NC(=O)[C@H](CCC(=O)O)NC(=O)[C@H](CO)NC(=O)[C@@H](NC(=O)[C@H](CC(C)C)NC(=O)[C@H](CC(C)C)NC(=O)[C@H](CC(C)C)NC(=O)[C@H](CC(C)C)NC(=O)[C@H](CS)NC(=O)[C@H](CO)NC(=O)[C@H](Cc1ccccc1)NC(=O)CNC(=O)[C@H](CCCNC(=N)N)NC(=O)[C@@H]1CCCN1C(=O)[C@H](C)NC(=O)[C@@H](N)CCSC)[C@@H](C)O)C(=O)N[C@@H](CC(=O)O)C(=O)N[C@@H](CC(C)C)C(=O)N1CCC[C@H]1C(=O)N[C@H](C(=O)N[C@@H](CCCCN)C(=O)N[C@@H](CCCNC(=N)N)C(=O)N[C@@H](CCCNC(=N)N)C(=O)N[C@@H](C)C(=O)O)C(C)C [Humanin] | dose-dependent elevation of the level of intracellular IP3 |
| MAPRGFSCLLLLTGEIDLPVKRRA [[Gly14]-Humanin] | dose-dependent elevation of the level of intracellular IP3 |
